The values below come from patent US8476300B2, “Selective estrogen receptor modulator for the treatment of osteoarthritis” (Eli Lilly and Company, priority 2008, dated 2013).

The Ki is the dissociation constant of the complex between target and ligand, obtained from inhibition or displacement. One may read the IC50 as the concentration needed to halve the response being measured. One may read the melting point as the temperature, or range, at which the solid turns liquid.

The subject of one data set is Ishikawa cells. Briefly: Ishikawa cell proliferation assay (alkaline phosphatase readout; agonist and antagonist modes). The conditions noted are these: for agonist activity: agonist mode, compound alone, versus the response to tamoxifen. The format is cell-based. As for the experimental part:
Ishikawa Cell Proliferation Assay:
This assay measures cell proliferation (using an alkaline phosphatase readout) in both an agonist mode in the presence of a test compound alone, and in an antagonist mode in which the ability of a test compound to block estradiol stimulation of growth is measured.
After an overnight incubation, Ishikawa cells are rinsed with Dulbecco's Phosphate Buffered Saline (“D-PBS”) without Ca^+2 and Mg^+2, and trypsinized by a 3 minute incubation with 0.25% Trypsin/EDTA, phenol red-free. Cells are re-suspended in assay medium and adjusted to 250,000 cells/mL. Approximately 25,000 cells in a 100 μl media are added to flat-bottom 96 wells microculture plates and incubated at 37° C. in a 5% CO2 humidified incubator for 24 hours. The next day, serial dilutions of compounds are prepared in assay medium (at 6 times the final concentration in the assay). The assay is run in dual mode, agonist and antagonist modes.
For the agonist mode, plates receive 25 μL/well of assay medium followed by 25 μL/well of a diluted test compound (at 6× the final concentrations). For the antagonist mode, plates receive 25 μL/well of 6 nM 17 β-estradiol (“E2”) followed by 25 μL/well of a diluted test compound (at 6× the final concentrations). After an additional 48-hour incubation at 37° C. in a 5% CO2 humidified incubator, media is aspirated from wells and 100 μL fresh assay medium is added to each microculture. Serial dilutions of compounds are prepared and added to the cells as described above. After an additional 72 hour incubation at 37° C. in a 5% CO2 humidified incubator, the assay is quenched by removing media and rinsing plates twice in D-PBS. The plates are dried for 5 minutes and frozen at −70° C. for at least 1 hour. The plates are then removed from the freezer and allowed to thaw at room temperature. After a 20-minute incubation, plates are read on a spectophotometer at 405 nm.
The data are fitted using a 4 parameter fit model to derive EC50 (for agonist mode) or IC50 (for antagonist mode) values. For the antagonist mode, a % efficacy for each compound is calculated versus E2 (1 nM) alone. For the agonist mode, a % efficacy for each compound is calculated versus the response to tamoxifen. […] The average agonist activity of the compound of Example 1 alone was 17.7%±11.3% (n=4) (arithmetric mean±standard deviation). The values for the compound of Example 1 may be compared to 4-hydroxytamoxifen which generally results in >100% agonist activity.

For a further data set, the target named is T1, ERα receptor (Homo sapiens, UniProt P03372).
T1 sequence (P03372 1-595): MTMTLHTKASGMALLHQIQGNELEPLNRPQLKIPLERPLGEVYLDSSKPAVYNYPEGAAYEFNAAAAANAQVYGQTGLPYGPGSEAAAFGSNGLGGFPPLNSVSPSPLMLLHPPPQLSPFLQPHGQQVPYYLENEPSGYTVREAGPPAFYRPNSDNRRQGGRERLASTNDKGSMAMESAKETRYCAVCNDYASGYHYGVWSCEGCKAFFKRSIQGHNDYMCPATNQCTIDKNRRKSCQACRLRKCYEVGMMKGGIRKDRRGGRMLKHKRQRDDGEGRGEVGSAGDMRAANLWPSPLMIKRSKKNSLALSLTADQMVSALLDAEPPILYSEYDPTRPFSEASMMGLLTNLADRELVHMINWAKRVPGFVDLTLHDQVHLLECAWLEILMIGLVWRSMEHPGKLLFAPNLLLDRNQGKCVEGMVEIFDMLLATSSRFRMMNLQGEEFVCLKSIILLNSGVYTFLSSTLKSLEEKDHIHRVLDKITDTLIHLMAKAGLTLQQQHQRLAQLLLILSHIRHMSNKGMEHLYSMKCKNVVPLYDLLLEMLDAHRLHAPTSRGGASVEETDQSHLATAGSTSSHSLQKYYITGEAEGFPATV
Kind of data set: Estrogen receptor competition binding assay (3H-estradiol displacement), ERα. The settings on record: geometric mean±standard deviation, from IC50 by Cheng-Prusoff, read-out: Ki-α. As for the experimental part:
(§1) Estrogen Receptor Binding Assay:
(§2) Compounds are tested for binding affinity to both estrogen receptor types (ERα and ERβ) by a competition binding assay that measures the compound's ability to displace ^3H-estradiol from the receptors. IC50 and Ki values for both receptor types can be calculated.
(§3) A competition binding assay is run in a buffer containing 50 mM HEPES buffering reagent, pH 7.5, 1.5 mM ethylenediaminetetraacetic acid (“EDTA”), 150 mM NaCl, 10% glycerol, 1 mg/mL ovalbumin and 5 mM dithiothreitol (“DTT”), using 0.025 μCi per well ^3H-Estradiol (NEN#NET517 at 118 Ci/mmol, 1 mCi/mL), 10 ng/well ERα or ERβ receptor. A test compound is added at 10 different concentrations. Non-specific binding is determined in the presence of 1 μM of estradiol (17 β-estradiol). The binding reaction (140 μL) is incubated for 4 hours at room temperature, then 70 μl of cold DCC buffer is added to each reaction (DCC buffer contains per 50 mL of assay buffer, 750 mg of charcoal and 250 mg of dextran). Plates are mixed 8 minutes on an orbital shaker at 4° C. […] After an incubation of 2.5 hours, the plates are read in a counter. […] The Kd for ^3H-Estradiol is determined by saturation binding to ERα and ERβ receptors. The IC50 values for test compounds are converted to Ki using the Cheng-Prusoff equation, and the Kd determined by saturation binding assay.

In another data set the test system is OVX rat uterus. Kind of data set: 4-Day OVX rat uterine agonist assay. Format: in vivo. The procedure: 4-Day OVX Rat Uterine Agonist Assay:
Seventy-five day old rats are ovariectomized and treatment is started 14 days later when circulating estradiol levels have reached minimal levels. After 4 days of treatment with 3 doses of a test compound, (6 rats per group) body weight, uterine wet weight and uterine eosinophil peroxidase (EPO) activity are measured. Cholesterol levels are also measured to compare relative ability to lower cholesterol with other SERMs. If there is any question of uterine stimulation, histological examination will determine epithelial cell height.
A significant (>10% of the increase induced by estradiol @0.1 mg/kg) and dose-responsive increase in uterine EPO activity is used as an early indicator of potential uterine agonist activity. […] None of the groups dosed with the compound of Example 1 evidenced an increase in EPO activity that was >10% of that induced by estradiol at 0.1 mg/Kg. Significant, dose-related increases in uterine endometrial thickness have also been used as an early sign of potential SERM uterine agonist activity.

The subject of another data set is OVX/MCT animals. Kind of data set: OVX/Meniscal tear model of OA. The format is in vivo, rat. As for the experimental part:
The rat meniscal tear (MCT) model is a well-described model of OA in which joint damage and pain are induced by surgical intervention (transection of the medial meniscus) in one knee joint. In the standard MCT model using male rats, joint pathology develops progressively and is measured via joint histology at 3 weeks post-surgery.

Data set [1] relates to immature rat uterus (estrogen-induced uterine weight). Kind of data set: 3-Day immature rat uterus antagonist assay. The format is in vivo. The conditions noted are these: oral, 3 days, with EE2 0.1 mg/kg. From the text:
3-Day Immature Rat Uterus Antagonist Assay:
This model for uterine antagonism utilizes immature (3 week old) female rats that are highly sensitive to estrogenic stimulation of the uterus given that their circulating estrogen levels are prepubertal. The uteri from immature rats are fully responsive to exogenous estrogen, yet are quiescent in the absence of exogenous estrogen. Administration of exogenous estrogen to immature rats produces a reliable elevation of uterine weight, which can be used to study uterine antagonist effects. The rats are treated with both estradiol and 4 different concentrations of a test compound for 3 days and then uterine wet weights are measured. […]
Uterine weight/body weight ratios (UWR) are calculated for each animal. The percent inhibition of the estrogen-induced response is then calculated by the following formula: percent inhibition=100×(UWRestrogen−UWRtest compound)/(UWRestrogen−UWRcontrol)
ED50 values are derived from a semi-log regression analysis of the linear aspect of the dose response curve. Both the UWR data and the percent inhibition data are statistically analyzed by one way analysis of variance (ANOVA) with post-hoc testing by Fisher's PLSD when indicated by a p<0.05.

Another data set concerns the target ERβ receptor (Homo sapiens, UniProt Q92731). Briefly: Estrogen receptor competition binding assay (3H-estradiol displacement), ERβ. The conditions noted are these: geometric mean±standard deviation, from IC50 by Cheng-Prusoff, read-out: Ki-β. As for the experimental part:
as §1, §2, §3

Another data set deals with pCTX-II. Kind of data set: P-CTXII biomarker. Format: in vivo. The source says: pCTX-II is believed to be a useful biomarker reflecting efficacy relating to the treatment of OA. See for example, Garnero P et al Ann Rheum Dis 2003; 62:939-943; Mazieres B et al, Arthritis Rheum 2003; 48:5683
The conditions of data set [2]: marker of cartilage type II collagen turnover; cited from earlier work.
[3] abbreviates: n=4, arithmetic mean±standard deviation.

Bounds are passed on as bounds.

ERβ receptor, sequence (Q92731 whole entry): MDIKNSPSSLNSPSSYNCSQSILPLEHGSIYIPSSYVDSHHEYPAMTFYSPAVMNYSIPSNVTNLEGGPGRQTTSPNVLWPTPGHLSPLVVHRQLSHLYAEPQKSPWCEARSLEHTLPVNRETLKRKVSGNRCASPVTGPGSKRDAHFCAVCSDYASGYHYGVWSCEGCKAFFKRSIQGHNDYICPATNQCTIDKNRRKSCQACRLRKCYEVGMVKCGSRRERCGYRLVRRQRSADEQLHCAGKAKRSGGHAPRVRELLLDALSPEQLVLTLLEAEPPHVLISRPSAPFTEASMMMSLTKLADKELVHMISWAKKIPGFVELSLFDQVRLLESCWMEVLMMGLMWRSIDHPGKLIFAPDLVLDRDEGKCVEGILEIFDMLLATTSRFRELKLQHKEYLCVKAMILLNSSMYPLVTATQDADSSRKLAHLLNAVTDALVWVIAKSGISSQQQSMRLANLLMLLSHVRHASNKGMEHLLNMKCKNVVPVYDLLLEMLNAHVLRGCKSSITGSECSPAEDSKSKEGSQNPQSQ

Compound 4-hydroxytamoxifen [reference compound] registered an agonist activity in the data set on Ishikawa cells (setting [3]) greater than 100%.
For the compound `Cc1ccc(-c2ccc3cc(O)ccc3c2Oc2ccc(OCCN3CCCCC3)cc2)s1.Cl` [Example 1, 6-(5-methylthiophen-2-yl)-5-(4-(2-(piperidin-1-yl)ethoxy)phenoxy)naphthalen-2-ol hydrochloride], the melting point was determined as 248.82 °C. At ERα receptor, the Ki is 0.15 ± 0.22 nM. Moreover, the IC50 with Ishikawa cells (Homo sapiens, Ishikawa, antagonist mode, n=4, geometric mean±standard deviation, read-out: relative IC50) came out at 3.75 ± 1.71 nM. Moreover, the agonist activity in the data set with Ishikawa cells (setting [3]) was 17.7%±11.3%. In the data set with Ishikawa cells (antagonist mode, versus E2 (1 nM) alone, n=4, arithmetic mean±standard deviation), the antagonist efficacy is recorded as 102%±8.4%. Besides, in the data set on OVX rat uterus (all dose groups), the “increase in EPO activity relative to that induced by estradiol at 0.1 mg/Kg” value was “up to 10%”. Besides, in the data set with OVX rat uterus (doses up to 10 mg/kg), the “uterine endometrial thickness, dose related increase vs OVX group” value is “did not result in significant, dose related increases in uterine endometrial thickness”. Further, in the data set with OVX rat uterus (doses up to 10 mg/kg, 4 days, Tukey Kramer p<0.05), the “uterine EPO activity, dose related increase vs OVX group” value is “no significant dose related increases in EPO activity”. Moreover, in the data set on OVX/MCT animals (OVX animals, meniscal tear), the “doses with statistically significant pain reduction vs OVX/MCT group” value is no less than 1.0 mg/kg and the joint pain result is reported as “reduced pain in a dose-dependent fashion”. Moreover, the “reduction in joint pain compared with 17α-ethynylestradiol” value in the data set on OVX/MCT animals (doses of 3 and 10 mg/kg) is reported as “not statistically different from those induced by 17α-ethynylestradiol”. Moreover, the “ED50 (inhibition of estrogen-induced uterine weight/body weight ratio)” value in data set [1] is 0.053 mg/kg. Moreover, on ERβ receptor, the Ki turned out to be 0.2 ± 0.2 nM. For the same compound, the “pCTX-II levels compared with 17α-ethynylestradiol treatment” value in the data set on pCTX-II (all doses) is recorded as “not statistically different from those resulting from treatment with 17α-ethynylestradiol”. For the same compound, the pCTX-II result in the data set on pCTX-II (in vivo) was “significantly and dose-dependently reduced pCTX-II”.
On to `COc1ccc2c(c1)OC(C)(C)[C@@H](c1ccccc1)[C@@H]2c1ccc(OCCN2CCCC2)cc1` [levormeloxifene], for which the “urinary levels of CTX-II” value in data set [2] is reported as “significantly decrease the urinary levels of CTX-II”.
